Results on four compounds are retold here after US11224565B2, “N-acyldipeptide derivatives and their uses” (NeoStrata Company, Inc., priority 2011, dated 2022).

SMILES strings stand for the structures. Peptide text beside a SMILES is read from it.

Holding throughout (format): in vivo, human
Data set [1] deals with age spots including lentigines and keratosis. Put plainly: Topical treatment of age spots on face. The settings on record: twice daily, after 4 weeks; 1% (w/v) N-Ac-L-Cys-L-Tyr-NH2 in WEP442 pH 6.4 left side, 0.4% (w/v) N-Ac-L-Cys-L-Cys-NH2 in WEP442 right side. From the text:
A subject had multiple age spots including lentigines and keratosis on their face. Topical treatments with conventional medications including hydroquinone with or without glycolic acid had been unsuccessful. The subject topically applied twice daily to the left side of their face 1% (w/v) N—Ac-L-Cys-L-Tyr-NH2 in WEP442, pH 6.4 (Example 5), and to the right side of their face 0.4% (w/v) N—Ac-L-Cys-L-Cys-NH2 in WEP442 (Example 5) for several months. […] Continued topical applications of the formulations should improve or eradicate lentigines and keratosis of the face.

The next data set concerns Disturbed keratinization. Put plainly: Summary of test results in volunteer subjects: disturbed keratinization. The note with it: efficacy grade. In short, it runs like this: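 Volunteers applied N-acyldipeptide derivatives dissolved in water/ethanol/propylene glycol 40:40:20, ethanol/propylene glycol 80:20, or water/propylene glycol 80:20 mixed into oil-in-water cream, on involved skin once or twice daily for several weeks or until clearing. Vehicle applied twice daily as control; disturbed keratinization lesions assessed clinically.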

Data set [2] has as its system Aging related changes of skin, nail and hair. Put plainly: Summary of test results in volunteer subjects: aging related changes. The settings on record: efficacy grade.
In data set [3] the test system is Deranged immune disorders and inflammation. The data set is described as follows: Summary of test results in volunteer subjects: deranged immune disorders and inflammation. The note with it: efficacy grade. In outline: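 Volunteers applied N-acyldipeptide derivatives topically once or twice daily for several weeks or until lesions cleared. Compounds were dissolved in water/ethanol/propylene glycol (40:40:20) or ethanol/propylene glycol (80:20), or in water/propylene glycol (80:20) mixed into an oil-in-water cream. Vehicle control applied twice daily.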

A further data set deals with Nerve disorders. The data set is described as follows: Summary of test results in volunteer subjects: nerve disorders. The note with it: efficacy grade. In short, it runs like this: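 Volunteers applied N-acyldipeptide derivatives dissolved in water/ethanol/propylene glycol (40:40:20), ethanol/propylene glycol (80:20), or water/propylene glycol (80:20) mixed into cream, once or twice daily for several weeks or until lesions cleared. Vehicle control applied twice daily; application also over arthritic joints or painful muscles.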

The test system of data set [4] is arthritis of both knees with edema and pain. Put plainly: Sublingual administration in arthritis of knees. The note with it: 1 mg sublingually, kept under the tongue 15 minutes; after a few hours. Here is the method:
A subject had severe arthritis of both knees with edema and pain for many years. The conventional therapy had provided only temporary relief of knee pain and edema. The subject took N—Ac-L-Pro-Gly-NH2 (1 mg) sublingually and kept the dipeptide under the tongue for 15 minutes before swallowing.

The test system of another data set is forearm skin. The data set is described as follows: Skin thickness of forearm by micrometer calipers after topical application. The settings on record: for increase in skin thickness of treated left forearm: 1% (w/v) in WEP442 topically twice daily, vehicle forearm no change. As for the experimental part:
In one of the studies related to skin changes associated with aging, skin thickness was measured by micrometer calipers as follows. The skin was grasped with a 2×6 cm metal hinge; the internal faces of which were coated with emery cloth to prevent slippage, and manually squeezed to threshold subject discomfort. Combined thickness of two whole-skin layers including thickness of the two hinge leaves was measured with micrometer calipers. Thickness of the two hinge leaves was subtracted to determine the actual thickness of two whole-skin layers. Triplicate measurements on treated sites were done and an average number was used for calculation of the skin thickness. In other studies, test sites of skin 17 mm in diameter were used, the circular sites were marked with permanent ink. Intervening control sites were also 17 mm in diameter. Thickness of skin of all sites was measured directly by means of an electronic digital caliper. In this instance the jaws of the caliper were opened to 17 mm, applied with pressure to the skin sites and then closed to firm tightness. Thickness of skin was then read off the screen of the calipers. Measurements of all sites were made in triplicates.

For data set [5], the system named is inflammation, dermatitis, or eczema lesions. Put plainly: Topical application to chronic inflammation, dermatitis, eczema or allergic skin lesions, clinical evaluation. The note with it: 0.4% (w/v) in WEP442 pH 3.7 twice daily, inflammatory dermatitis on both arms. From the text:
In another embodiment, the volunteer subject topically applied the test compositions containing N-acyldipeptide derivatives of the present invention on involved skin or lesions once or twice daily for several weeks or until the involved lesions completely cleared and clinically changed to normal skin. As a control study, the subject also topically applied a vehicle control composition on the involved skin or lesions twice daily for the same period.

Data set [6] can be described thus: Systemic administration under the tongue, tolerability. The settings on record: 1 mg powder under the tongue, twice daily for three days, person. As for the experimental part:
The subject took 1 mg N—Ac-L-Tyr-L-Tyr-OH powder under the tongue until it was dissolved completely. The same dose was taken twice daily for the next three days. […] Such systemic administration of the bioactive dipeptide derivative of the present invention is believed to have the potential of treating diseases, symptoms or syndromes associated with immune, tumors, cancers, nervous, vascular, musculoskeletal, cutaneous system, or other tissues and systems.

Consider `CC(=O)N[C@@H](CS)C(=O)N[C@@H](CS)C(N)=O` [N-Ac-L-Cys-L-Cys-NH2] (Ac-Cys-Cys-NH2), for which, in data set [1], the “age spot lesions of face” value is reported as “started to improve noticeably”. Further, the DK with Disturbed keratinization is recorded as 2+ (2+: 50% Efficacy). The AG in data set [2] was 3+ (3+: 75% Efficacy). Also, the DI in data set [3] was 2+ (2+: 50% Efficacy). Further, the ND with Nerve disorders is on record as 2+ (2+: 50% Efficacy).

Turning to `CC(=O)N[C@@H](CS)C(=O)N[C@@H](Cc1ccc(O)cc1)C(N)=O` [N-Ac-L-Cys-L-Tyr-NH2] (Ac-Cys-Tyr-NH2), the “age spot lesions of face” value in data set [1] is on record as “started to improve noticeably”. For the same compound, the DK with Disturbed keratinization is on record as 2+ (2+: 50% Efficacy). Besides, the AG in data set [2] is given as 2+ (2+: 50% Efficacy). The DI in data set [3] is recorded as 2+ (2+: 50% Efficacy). Further, the ND with Nerve disorders was 3+ (3+: 75% Efficacy).

On to `CC(=O)N1CCC[C@H]1C(=O)NCC(N)=O` [N-Ac-L-Pro-Gly-NH2] (Ac-Pro-Gly-NH2), for which the “edema and pain of arthritic knees” value in data set [4] is “diminished substantially”. Moreover, in the data set with Disturbed keratinization, the DK is reported as 2+ (2+: 50% Efficacy). In data set [2], the AG was 2+ (2+: 50% Efficacy). Moreover, the DI in [3] was 3+ (3+: 75% Efficacy). Besides, the ND in the data set with Nerve disorders is given as 4+ (4+: 95-100% Efficacy).

On to `CC(=O)N[C@@H](Cc1ccc(O)cc1)C(=O)N[C@@H](Cc1ccc(O)cc1)C(=O)O` [N-Ac-L-Tyr-L-Tyr-OH] (Ac-Tyr-Tyr-OH), for which the “increase in skin thickness of treated left forearm” value in the data set with forearm skin (after 2 weeks) is reported as 16%; in the data set with forearm skin (after 4 weeks), 17%; with forearm skin (after one week), 16%. Also, the “appearance of treated left forearm at end of treatment” value in the data set on forearm skin (1-3% (w/v) in WEP442 topically twice daily for 1-6 weeks as in the example, vehicle forearm still loose, thin and wrinkled) was “more firm, smooth, plump, and less wrinkled when lifted”. In [5], the “itch after topical application” value is “stopped within a few minutes”. For the same compound, in data set [5] (end of one week), the “improvement as judged by clinical evaluation” value is on record as 95%. In addition, in data set [6], the “irritation or side reactions” value is recorded as “did not provoke any irritation or side reactions”. For the same compound, the DK in the data set on Disturbed keratinization is on record as 3+ (3+: 75% Efficacy). Also, the AG in [2] is recorded as 4+ (4+: 95-100% Efficacy). Moreover, the DI in [3] is given as 3+ (3+: 75% Efficacy). Besides, the ND with Nerve disorders was 4+ (4+: 95-100% Efficacy).
